In article PMC11648835 (Chemmedchem, 2024):
“Also recorded” adds a separate entry of the source.

Legend:
[1] = tested on: Mtb-infected human THP-1 macrophages; assay type: cell-based, Mycobacterium tuberculosis
[2] = tested on: Mtb strain mc^26206 wild-type, hypoxic non-replicating; assay type: cell-based, Mycobacterium tuberculosis
[3] = tested on: panel of bacteria consisting of S. aureus, E. faecium, E. coli, K. pneumoniae, A. baumannii and P. aeruginosa; assay type: cell-based
[4] = tested on: Mycobacterium tuberculosis mc^26206 (WT); assay type: cell-based

SMILES | intracellular anti-tuberculosis activity (in words) [1] | anti-tuberculosis activity against wild type Mtb (in words) [4] | other results
O=c1ccc2nc3ccc(OCc4ccc([N+](=O)[O-])o4)cc3oc-2c1 [Compound 1, 7‐((5‐Nitrofuran‐2‐yl)methoxy)‐3H‐phenoxazin‐3‐one] | intracellular TB killing | – | time-kill kinetic assay under hypoxia (in words) [2]: inactive; activity against a panel of bacteria (in words) [3]: inactive
O=c1ccc2nc3ccc(O)cc3oc-2c1 [Compound 2, resorufin, reference compound] | – | no anti‐tuberculosis activity; also recorded: inactive | activity against a panel of bacteria (in words) [3]: inactive
O=c1ccc2nc3ccc(OCc4ccc([N+](=O)[O-])cc4)cc3oc-2c1 [Compound 6b, 7‐((4‐Nitrobenzyl)oxy)‐3H‐phenoxazin‐3‐one] | – | no anti‐tuberculosis activity | MIC90 Mtb WT [4]: >256 µM
O=c1ccc2nc3ccc(OCc4ccccc4)cc3oc-2c1 [Compound 6g, 7‐(Benzyloxy)‐3H‐phenoxazin‐3‐one] | – | no anti‐tuberculosis activity | –
COCCOc1ccc2nc3ccc(=O)cc-3oc2c1 [Compound 6i, 7‐(2‐Methoxyethoxy)‐3H‐phenoxazin‐3‐one] | intracellular TB killing | – | intracellular Mtb survival [1]: approximately 10%
COc1ccc2nc3ccc(=O)cc-3oc2c1 [Compound 6j, 7‐Methoxy‐3H‐phenoxazin‐3‐one] | – | – | time-kill kinetic assay under hypoxia (in words) [2]: inactive
O=c1ccc2nc3ccc(OCCO)cc3oc-2c1 [Compound 6s, 7‐(2‐Hydroxyethoxy)‐3H‐phenoxazin‐3‐one] | – | completely inactive | –
O=c1ccc2nc3ccc(OCC4(CO)COC4)cc3oc-2c1 [Compound 6y, 7‐((3‐(Hydroxymethyl)oxetan‐3‐yl)methoxy)‐3H‐phenoxazin‐3‐one] | – | completely inactive | –
COCOc1ccc2nc3ccc(=O)c(I)c-3oc2c1 [Compound 8h, 4‐Iodo‐7‐(methoxymethoxy)‐3H‐phenoxazin‐3‐one] | intracellular TB killing | – | –
